Reference: publication PMC9650711, “Hydroxyl-Rich Hydrophilic Endocytosis-Promoting Peptide with No Positive Charge” (Journal of the American Chemical Society, 2022)

Columns and labels:
Assay type in all cases: cell-based, human
[1] = test system: RB-EPP6 uptake in U87 cells; test: Endocytosis inhibitors treatment, RB-EPP6 uptake by flow cytometry; settings: inhibitor 1 h, then 500 nM RB-EPP6 1 h; for inhibition of RB-EPP6 uptake: flow cytometry median intensity; for effect on RB-EPP6 uptake (cholesterol extraction / binding): flow cytometry
Description: (§1) Flow cytometry experiments
(§2) To perform flow cytometry experiments, a NovoCyte flow cytometer (NovoExpress) was used.
(§3) Quantification of fluorescence intensity was achieved using the Novoxpress software. Fifty thousand cells were analyzed for each condition. A green fluorescent dye used for DNA staining, YOYO, was included in all the flow cytometry experiments, serving as a cell live/dead indicator.
For the YOYO-only group, the cells were treated with trypsin for 5-10 min and subsequently fixed in a 1.5 mL centrifuge tube using 4% paraformaldehyde at room temperature for 15 min. Then, fixed cells were washed with PBS once and were permeabilized using 90% MeOH on ice for 15 min. For all conditions, cells were incubated with YOYO in a phenol-free medium for half an hour, and then were centrifuged to remove the YOYO solution and resuspended in a fresh phenol-free medium before performing flow cytometry.
For general incubation, 300 k U87 cells were seeded in a 35×10 mm culture dish and incubated overnight under normal culturing conditions. Stock solutions of Dye-EPPs were made in DMSO to reach a concentration of 500 μM. Fresh cell culture medium was used to dilute the stock solution to 500 nM. Cells were incubated with RB-EPPs for desired time periods, followed by a one-time wash with phenol-free fresh culture medium before measurements. […]
(§4) Endocytosis inhibitors treatment
U87 cells were incubated with different endocytosis inhibitors for 1 h. Then, the media was replaced with fresh media containing 500 nM of RB-EPP6. After 1 h, a trypsin-EDTA solution (0.05%, Sigma) was added to detach the cells. The cells were collected by centrifugation and resuspended in phenol-free media. […]
Stock solutions of trackers for mitochondria, lysosome, and ER were diluted with cell culture medium into 100 nM, 500 nM, and 4 μM, respectively. RB-EPP6 was added to each working solution at 500 nM. U87 cells were incubated with the trackers and RB-EPP6 for 1 h and then washed once before confocal imaging.

[2] = test system: U87 cells; test: Uptake and nuclear accumulation of TO- and EB-labeled EPPs, confocal; settings: confocal imaging, TO conjugates 500 nM, EB-EPP6 2 ug/mL or 6 hr
Description: Confocal imaging experiments
To image the cells, a Zeiss 880 inverted confocal laser scanning microscope (Carl Zeiss, Germany) was used. Image acquisition and analyses were carried out using the manufacturer’s software (ZEN, Carl Zeiss). Quantification of fluorescence intensity in single cells was performed using Fiji […]
as §1, §2, §3
For the YOYO-only group, the cells were treated with trypsin for 5-10 min and subsequently fixed in a 1.5 mL centrifuge tube using 4% paraformaldehyde at room temperature for 15 min. Then, fixed cells were washed with PBS once and were permeabilized using 90% MeOH on ice for 15 min. For all conditions, cells were incubated with YOYO in a phenol-free medium for half an hour, and then were centrifuged to remove the YOYO solution and resuspended in a fresh phenol-free medium before performing flow cytometry. […]
2 μL of RB-EPP (in DMSO) was added to the solution at a concentration of 500 μM. […] Samples were collected from both phases and quantified by Analytical HPLC separately. […]

[3] = test system: RB-EPP6 uptake in U87 cells; test: FIBCD1 competition assay with CSA, RB-EPP6 uptake by flow cytometry; settings: 500 nM RB-EPP6 together with CSA, 1 h
Description: experiment. Poly-A selective RNA-seq libraries were prepared using the NEB NextUltra II kit (New England Biolabs) and sequenced on an Illumina NextSeq500 with 2×75 pair-end reads. The obtained sequencing data was preprocessed using fastp, aligned using STAR, and counted using featureCounts. Differentially expressed genes were identified using DESeq2. The sequence data and analysis reports are deposited in the GEO repository (Accession # GSE202764) […]
U87 cells were incubated with 500 nM RB-EPP6 and YOYO, together with chondroitin sulfate (CSA) in complete media. After 1 h, trypsin was used to detach the cells. Cell pellets were collected by centrifugation. Fresh phenol-free medium was added to each condition. […]
Human FIBCD1 cDNA with an MYC-DDK tag was ordered from Origene (#RC206180) and was expressed using the mammalian expression system kit ExpiCHOTM (#A29133) as generally described by MAN0014337. […] The obtained full-length FIBCD1 was quantified using BCA.
Fluorescence polarization (FP) assay
Solutions of RB-EPPs (in 1% BSA/PBST) were added to different concentrations of full-length FIBCD1 (in 1% BSA/PBST). […] The solutions were incubated at room temperature for 30 minutes on an orbital shaker, and the fluorescence polarization values were quantified using a BioTek Synergy H1 plate reader, with an FP filter set (excitation 530/25, emission 590/35). […]

[4] = test system: U87 cells; test: Resazurin assay, cell viability
Description: Time-dependent uptake experiment
U87 cells were incubated with RB-EPP6 at 500 nM for 1 h. After washing with fresh medium once, the cells were kept in the 5% CO2 incubator at 37 °C for desired time durations before […]
Temperature-dependent uptake experiment
U87 cells were kept in a 4 °C cold room for half an hour. After that, cells were incubated with RB-EPP 6 at 500 nM at 4 °C. Cells in the control group were maintained and incubated at 37 °C. After 1 h, cells were washed with fresh medium once before confocal imaging.
All the RB-EPPs were diluted in PBS to 100 μM. 700 μL of the testing peptides were added to the apical chamber of a Corning BioCoat Pre-coated PAMPA Plate. 200 μL PBS was added to the basolateral chamber. The plate was kept at 37 °C with 5% CO2 for 5 h, after which 80 μL samples were collected from each chamber for RB fluorescence intensity reading using the Synergy H1 […]
as §4
U87 cells were incubated with different endocytosis inhibitors for 1 h. Then, the media was replaced with fresh media containing 500 nM of RB-EPP6. After 1 h, a trypsin-EDTA solution (0.05%, Sigma) was added to detach the cells. […]
Resazurin was dissolved in DI water at a stock concentration of 6 mg/mL. […] The fluorescence intensity of the samples was recorded by a plate reader at 532 nm excitation and 585 nm emission wavelengths. […]

[5] = test system: RB-EPP6 uptake in U87 cells; test: Heparin-binding assay, RB-EPP6 uptake by flow cytometry; settings: heparin sulfate 10-200 μg/mL 30 min, then with 500 nM RB-EPP6 1 h

O=C(N/N=C/c1ccc(O)c(O)c1)c1cc2ccccc2cc1O [Dynasore]
inhibition of RB-EPP6 uptake [1]: 86%

CC[n+]1c(-c2ccccc2)c2cc(N)ccc2c2ccc(N)cc21 [EB, ethidium bromide]
uptake / intracellular localisation [2]: did not show any uptake

O=C1NC(=NS(=O)(=O)c2cccc3ccccc23)S/C1=C\c1ccc(Br)cc1 [Pitstop 2]
inhibition of RB-EPP6 uptake [1]: 9%

C=C1[C@@H](C)[C@H]2[C@H](Cc3ccccc3)NC(=O)[C@]23[C@H](OC(C)=O)/C=C/[C@@](C)(O)C(=O)[C@@H](C)C/C=C/[C@H]3[C@@H]1O [cytochalasin D]
inhibition of RB-EPP6 uptake [1]: 38%

CCCCC[C@@H](O)[C@H]1C(=O)O[C@H](C)[C@@H](O)/C=C/C=C/C=C/C=C/C=C(\C)[C@@H](O)C[C@H](O)C[C@H](O)C[C@H](O)C[C@H](O)C[C@H](O)C[C@@H]1O [filipin]
effect on RB-EPP6 uptake (cholesterol extraction / binding) [1]: did not inhibit

c1ccc2c(c1)Nc1ccccc1S2 [phenothiazine]
inhibition of RB-EPP6 uptake [1]: no inhibition

COC[C@H]1OC(=O)c2coc3c2[C@@]1(C)C1=C(C3=O)[C@@H]2CCC(=O)[C@@]2(C)C[C@H]1OC(C)=O [wortmannin]
inhibition of RB-EPP6 uptake [1]: 48%

chondroitin sulfate A [CSA]
effect on RB-EPP6 uptake (competitive uptake) [3]: inhibit RB-EPP6 uptake in a concentration-dependent manner
effect on cell viability [4]: without affecting cell viability

heparin sulfate
effect on RB-EPP6 uptake [5]: did not affect

methyl-β-cyclodextrin
effect on RB-EPP6 uptake (cholesterol extraction / binding) [1]: did not inhibit
